Source: US20130225548A1, “Pyridine Derivative and Medicinal Agent” (NIPPON SHINYAKU CO., LTD., priority 2010, published 2013)
Counter-ions that a name gives are not always drawn.

Molecular target: T1, Syk tyrosine kinase (Homo sapiens, UniProt P43405)
T1 construct: purchased Carna Biosciences, Inc
Experiment: Test for Syk tyrosine kinase inhibitory activity (ELISA)
Format: biochemical
Conditions: Syk tyrosine kinase (Carna Biosciences), 25 μM ATP in substrate solution, 30° C. 1 hour, n=2; read-out: Evaluation (IC50, concentration inhibiting the tyrosine kinase activity at 50%)
Experimental: Test Example 1: Test for Syk Tyrosine Kinase Inhibitory Activity
1. Preparation of Test Substance
A test substance was prepared at 10 mM in dimethyl sulfoxide (DMSO), and further diluted with DMSO to concentrations of 1000, 300, 100, 30, 10, 3, 1, 0.3, 0.1, 0.03, and 0.01 μM. The resulting solutions were further diluted to 20-fold with an assay buffer, whereby test substance solutions were prepared. As a negative control, a solution obtained by diluting DMSO to 20-fold with an assay buffer was used. As the assay buffer, a buffer containing 15 mM Tris-HCl (pH 7.5), 0.01 (v/v) % Tween-20, and 1 mM dithiothreitol was used.
2. Measurement of Syk Tyrosine Kinase Inhibitory Activity
The activity was measured using the ELISA method. Each of the test substance solutions was added to a streptavidine-coated 96-well place (DELFIA Strip Plate 8×12 wells, PerkinElmer Co., Ltd,) at 10 μL per well (n=2), and a substrate solution (625 nM biotinylated peptide substrate, 25 μM ATP, 25 mM MgCl2, 15 mM Tris-HCl (pH 7.5), 0.01 (v/v) % Tween-20, 1 mM dithiothreitol) was added to the plate at 20 μL per well, and the resulting mixture was stirred. Finally, Syk tyrosine kinase (Carna Biosciences, Inc.) (previously diluted to 0.025 nM with the assay buffer) was added to the plate at 20 μL per well, and the resulting mixture was stirred. A reaction was allowed to proceed at 30° C. for 1 hour. After the plate was washed 4 times with a washing buffer (50 mM Tris-HCl (pH 7.5, 150 mM NaCl, 0.02 (v/v) % Tween-20), a blocking buffer (0.1% bovine serum albumin, 50 mM Tris-HCl (pH 7.5), 150 mM NaCl, 0.02 (v/v) % Tween-20) was added to the plate at 150 μL per well, and blocking was performed at 30° C. for 30 minutes. Then, the blocking buffer was removed, and a horseradish peroxidase-labeled anti-phosphorylated tyrosine antibody (BD Biosciences, Inc.) (previously diluted to 10000-fold with the blocking buffer) was added to the plate at 100 μL per well, and the plate was incubated at 30° C. for 30 minutes. After the plate was washed 4 times with the washing buffer, a 3,3′,5,5′-tetramethylbenzidine solution (Sigma-Aldrich Co., Ltd.) was added to the plate at 100 μL per well to develop the color for 10 minutes. The reaction was stopped by adding 0.1 M sulfuric acid at 100 μL per well. The absorbance at 450 nm was measured using a microplate reader (Multiskan F C, Thermo Fisher Scientific K,K.).
3. Analysis of Measurement Results
A non-linear regression analysis was performed for the measured absorbance using the SAS system (SAS institute. Inc.), and a concentration of each of the test substances: inhibiting the tyrosine kinase activity at 50% (IC50 ) was calculated. A case where IC50 is […] was evaluated as ***, a case where IC50 is 5 nM or more and less than 50 nM was evaluated as **, and a case where IC50 is 50 nM or more and less than 500 nM was evaluated as *, which are shown in the column of evaluation item.

| SMILES | IC50 |
| --- | --- |
| N#Cc1ccnc(Nc2cc(C3CC3)cc(-c3ccc(N4CCN(CC(N)=O)CC4)nc3)n2)c1 [Example 7, 2-(4-{6-[(4-cyanopyridin-2-yl)amino]-4-cyclopropyl-2,3′-bipyridin-6′-yl}piperazin-1-yl)acetamide hydrochloride] | 50 to 500 nM |
| CC(=O)N1CCN(c2ccc(-c3cc(C4CC4)cc(Nc4cc(C#N)ccn4)n3)cn2)CC1 [Example 59, 2-{[6′-(4-acetylpiperazin-1-yl)-4-cyclopropyl-2,3′-bipyridin-6-yl]amino}pyridine-4-carbonitrile hydrochloride] | 5 to 50 nM |
| N#Cc1ccnc(Nc2cc(C3CC3)cc(-c3cnc(N4CCS(=O)(=O)CC4)nc3)n2)c1 [Example 105, 2-({4-cyclopropyl-6-[2-(1,1-dioxidethiomorpholin-4-yl)pyrimidin-5-yl]pyridin-2-yl}amino)pyridine-4-carbonitrile hydrochloride] | 50 to 500 nM |
| N#Cc1ccnc(Nc2cc(C3CC3)cc(-c3cncc(NC4CCN(C(N)=O)CC4)c3)n2)c1 [Example 77, 4-({6-[(4-cyanopyridin-2-yl)amino]-4-cyclopropyl-2,3′-bipyridin-5′-yl}amino)piperidine-1-carboxamide hydrochloride] | 5 to 50 nM |
| CNC(=O)CN1CCN(c2ccc(-c3cc(C4CC4)cc(Nc4cc(C#N)ccn4)n3)cn2)CC1 [Example 63, 2-(4-{6-[(4-cyanopyridin-2-yl)amino]-4-cyclopropyl-2,3′-bipyridin-6′-yl}piperazin-1-yl)-N-methylacetamide hydrochloride] | 50 to 500 nM |
| N#Cc1ccnc(Nc2cc(C3CC3)cc(-c3ccc(CN4CCS(=O)(=O)CC4)nc3)n2)c1 [Example 72, 2-({4-cyclopropyl-6′-[(1,1-dioxidethiomorpholin-4-yl)methyl]-2,3′-bipyridin-6-yl}amino)pyridine-4-carbonitrile hydrochloride] | 5 to 50 nM |
| N#Cc1ccnc(Nc2cc(C3CC3)cc(-c3cncc(NC4CCNCC4)c3)n2)c1 [Example 85, 2-{[4-cyclopropyl-5′-(piperidin-4-ylamino)-2,3′-bipyridin-6-yl]amino}pyridine-4-carbonitrile hydrochloride] | < 5 nM |
| CC(=O)N1CCN(Cc2cncc(-c3cc(C4CC4)cc(Nc4cc(C#N)ccn4)n3)c2)CC1 [Example 82, 2-({5′-[(4-acetylpiperazin-1-yl)methyl]-4-cyclopropyl-2,3′-bipyridin-6-yl}amino)pyridine-4-carbonitrile hydrochloride] | 50 to 500 nM |
| N#Cc1ccnc(Nc2cc(C3CC3)cc(-c3cncc(CN4CCCN(C(N)=O)CC4)c3)n2)c1 [Example 75, 4-({6-[(4-cyanopyridin-2-yl)amino]-4-cyclopropyl-2,3′-bipyridin-5′yl}methyl)-1,4-diazepane-1-carboxamide hydrochloride] | 5 to 50 nM |
| N#Cc1ccnc(Nc2cc(C3CC3)cc(-c3cccc(CN4CCNC(=O)C4)c3)n2)c1 [Example 79, 2-[(4-cyclopropyl-6-{3-[(3-oxopiperazin-1-yl)methyl]phenyl}pyridin-2-yl)amino]pyridine-4-carbonitrile hydrochloride] | 5 to 50 nM |
| CC(=O)N[C@H]1CCN(c2ccc(-c3cc(C4CC4)cc(Nc4cc(C#N)ccn4)n3)cn2)C1 [Example 42, N-[(3S)-1-{6-[(4-cyanopyridin-2-yl)amino]-4-cyclopropyl-2,3′-bipyridin-6′-yl}pyrrolidin-3-yl]acetamide hydrochloride] | 50 to 500 nM |

Now from value to compound:

| IC50 | SMILES |
| --- | --- |
| 5 to 50 nM | N#Cc1ccnc(Nc2cc(C3CC3)cc(-c3ccc4ncn(Cc5ccc(=O)[nH]c5)c4c3)n2)c1 [Example 174, 2-({4-cyclopropyl-6-[1-[(6-oxo-1,6-dihydropyridin-3-yl)methyl]-1H-benzimidazol-6-yl}pyridin-2-yl)amino]pyridine-4-carbonitrile hydrochloride] |
| 50 to 500 nM | CN(C)C(=O)CCn1cnc2ccc(-c3cc(C4CC4)cc(Nc4cc(C#N)ccn4)n3)cc21 [Example 125, 3-(6-{6-[(4-cyanopyridin-2-yl)amino]-4-cyclopropylpyridin-2-yl}-1H-benzimadazol-1-yl)-N,N-dimethylpropanamide hydrochloride] |
| 5 to 50 nM | N#Cc1ccnc(Nc2cc(C3CC3)cc(-c3ccc4ncn([C@H]5CC[C@@H](O)CC5)c4c3)n2)c1 [Example 145, 2-({4-cyclopropyl-6-[1-(cis-4-hydroxycyclohexyl)-1H-benzimidazol-6-yl]pyridin-2-yl}amino)pyridine-4-carbonitrile hydrochloride] |
| 5 to 50 nM | Cn1cnc2ccc(-c3cc(C4CC4)cc(Nc4cc(C#N)ccn4)n3)cc21 [Example 153, 2-{[4-cyclopropyl-6-(1-methyl-1H-benzimidazol-6-yl)pyridin-2-yl]amino}pyridine-4-carbonitrile hydrochloride] |
| 5 to 50 nM | N#Cc1ccnc(Nc2cc(C3CC3)cc(-c3ccc(N4CC(O)C4)nc3)n2)c1 [Example 6, 2-{[4-cyclopropyl-6′-(3-hydroxyazetidin-1-yl)-2,3′-bipyridin-6-yl]amino}pyridine-4-carbonitrile hydrochloride] |
| 5 to 50 nM | N#Cc1ccnc(Nc2cc(C3CC3)cc(-c3ccc(N)nc3)n2)c1 [Example 18, 2-[(6′-amino-4-cyclopropyl-2,3′-bipyridin-6-yl)amino]pyridine-4-carbonitrile hydrochloride] |
| 5 to 50 nM | N#Cc1ccnc(Nc2cc(C3CC3)cc(-c3ccc4ccnc(N5CCC[C@H]5CO)c4c3)n2)c1 [Example 167, 2-[(4-cyclopropyl-6-{1-[(2S)-2-(hydroxymethyl)pyrrolidin-1-yl]isoquinolin-7-yl}pyridin-2-yl)amino]pyridine-4-carbonitrile hydrochloride] |
| 50 to 500 nM | CC(C)(CO)Cn1cnc2cc(-c3cc(C4CC4)cc(Nc4cc(C#N)ccn4)n3)ccc21 [Example 119, 2-({4-cyclopropyl-6-[1-(3-hydroxy-2,2-dimethylpropyl)-1H-benzimidazol-5-yl]pyridin-2-yl}amino)pyridine-4-carbonitrile hydrochloride] |
| 5 to 50 nM | N#Cc1ccnc(Nc2cc(C3CC3)cc(-c3ccc(NCCCO)nc3)n2)c1 [Example 23, 2-({4-cyclopropyl-6′-[(3-hydroxypropyl)amino]-2,3′-bypyridin-6-yl}amino)pyridine-4-carbonitrile hydrochloride] |
| 5 to 50 nM | N#Cc1ccnc(Nc2cc(C3CC3)cc(-c3ccc4ncn(C(CO)CO)c4c3)n2)c1 [Example 143, 2-({4-cyclopropyl-6-[1-(1,3-dihydroxypropan-2-yl)-1H-benzimidazol-6-yl]pyridin-2-yl}amino)pyridine-4-carbonitrile hydrochloride] |
| 5 to 50 nM | N#Cc1ccnc(Nc2cc(C3CC3)cc(-c3ccc4[nH]ncc4c3)n2)c1 [Example 56, 2-{[4-cyclopropyl-6-(1H-indazol-5-yl)pyridin-2-yl]amino}pyridine-4-carbonitrile hydrochloride] |
| 50 to 500 nM | CCn1cnc2ccc(-c3cc(C4CC4)cc(Nc4cc(C#N)ccn4)n3)cc21 [Example 142, 2-{[4-cyclopropyl-6-(1-ethyl-1H-benzimidazol-6-yl)pyridin-2-yl]amino}pyridine-4-carbonitrile hydrochloride] |
| 5 to 50 nM | N#Cc1ccnc(Nc2cc(C3CC3)cc(-c3ccc(N4CC[C@H](O)C4)nc3)n2)c1 [Example 25, 2-({4-cyclopropyl-6′-[(3S)-3-hydroxypyrrolidin-1-yl]-2,3′-bipyridin-6-yl}amino)pyridine-4-carbonitrile hydrochloride] |
| 5 to 50 nM | N#Cc1ccnc(Nc2cc(C3CC3)cc(-c3ccc(N4CCC[C@H](O)C4)nc3)n2)c1 [Example 33, 2-({4-cyclopropyl-6′-[(3S)-3-hydroxypiperidin-1-yl]-2,3′-bipyridin-6-yl}amino)pyridine-4-carbonitrile hydrochloride] |
| 5 to 50 nM | N#Cc1ccnc(Nc2cc(C3CC3)cc(-c3ccc4c(c3)ncn4C(CO)CO)n2)c1 [Example 117, 2-({4-cyclopropy-6-[1-(1,3-dihydroxypropan-2-yl)-1H-benzimidazol-5-yl)]pyridin-2-yl}amino)pyridine-4-carbonitrile hydrochloride] |
